Key:
[1] = test system: Leishmania donovani; experiment: (§1) GSK_TCAKS: pIC50 Leishmania donovani Imaging: Amastigotes/Macrophages. Assay plates (384-well) were prepared by adding 250nL of compound to each well. For single shot assay, the final compound concentration was 5 uM. […] Automated image analysis was performed with a script developed on Acapella High Content Imaging and Analysis Software (PerkinElmer). Output: Average number of amastigotes per macrophage cell were reported for each well.; format: functional, organism-based, Homo sapiens; details: THP-1
[2] = GSK_TCAKS: pIC50 HepG2 human cell line viability assay using luminiscence. […] Seeding density was checked to ensure that new mono-layers were not more than 50% confluent at the time of harvesting. Cell suspension was added to 500 mL of the same medium at a final density of 1.2 * 10^5 cells/mL. This cell suspension was dispensed (25 uL, 3000 cells per well) into 384-well clear-bottom plates using a Multidrop Combi dispenser. Prior to addition of the cell suspension, the screening compounds (250 nL) were pre-dispensed into the plates with an Echo liquid handler. Plates were incubated for 48 h at 37C, 5% CO2. After incubation, plates equilibrated at room temperature for 30 min before proceeding to develop the luminescent signal. The signal developer, CellTiter-Glo Reagent, was allowed to equilibrate at room temperature for 30 min and added to the plates (25uL per well) using a Multidrop Combi dispenser. Plates were left for 10 min at room temperature for stabilization and then read using a ViewLux.; format: toxicity, cell-based
[3] = test system: Trypanosoma cruzi; experiment: GSK_TCAKS: pIC50 Trypanosoma cruzi viability assay using beta-GAL activity. This assay was run at single shot at 5uM compound concentration per well. The biological reagents consisted of NIH-3T3 host cells and trypomastigotes parasitic cells; both cell types were set to a 3.3 * 10^5 cells/mL dilution in assay DMEM by means of a CASY cell counter device using a 60um capillary. 6 uL of the mixture were dispensed per well (about 1 * 10^3 host-cells and 1 * 10^3 parasites) with a Multidrop Combi dispenser. […] In all wells, the percentage of DMSO never exceeded 0.5%. Plates incubated for four days at 37C, 5% CO2. The substrate used for the assay fluorescence intensity (FLINT) readout was resorufin-beta-D-galactopiranoside (Sigma-Aldrich) at 5uM per well. It was diluted in PBS supplemented with the soft detergent Igepal (Fluka).; format: functional, organism-based, Mus musculus; details: Tulahuen, NIH3T3
[4] = test system: Trypanosoma cruzi; experiment: (§2) GSK_TCAKS: pIC50 Trypanosoma cruzi Imaging: Infected Cells. […] Cells were then washed once with PBS before infection. T. cruzi trypomastigotes, collected at days 5 to 8 after infection from LLC-MK2 parasite infected cultures, were allowed to swim out for 4h at 37C from a centrifuged pellet (2,500 rpm/10 min/room temperature). Trypomastigotes were then collected and counted in a CASY Cell Counter. Trypomastigotes, in supplemented DMEM, were added to H9c2 cultures in a multiplicity of infection of 1 and incubated for 18 h. Cells were washed once with PBS before incubation of the infected H9c2 monolayer with trypsin (Life-Technologies) to detach cells from the flask. Cells were counted in a CASY Cell Counter using a 150 um capillary and their density set at 5 * 10^4 cells per mL in supplemented assay DMEM. Infected H9c2 were dispensed into 384-well poly-lysine coated assay plates at 50uL per well using a Multidrop Combi dispenser. After seeding them, the plates were incubated at 37C, 5% CO2 for 72h. Cultures were then fixed and stained by addition of 50 uL of a solution containing 8% formaldehyde and 4 uM DRAQ5 DNA dye (BioStatus, UK) per well. […] Five images were collected per well for reliable statistical analysis. Automated image analysis was performed with a script developed on Acapella High Content Imaging and Analysis Software (PerkinElmer). Output: percentage of infected cells per well as a second infection marker.; format: functional, organism-based, Rattus norvegicus; details: H9c2, 4 h
[5] = test system: Leishmania donovani; experiment: as §1, with “THP-1 Host Macrophages.” for “Amastigotes/Macrophages.”, “THP-1” for “Average number of amastigotes per macrophage”, “cell count” for “cell”; format: functional, organism-based, Homo sapiens
[6] = test system: Trypanosoma brucei brucei; experiment: GSK_TCAKS: pIC50 Trypanosoma brucei viability assay using fluorescence intensity. Assay plates (1536-well) were prepared by dispensing 25nL of compound solution per well using an Echo acoustic dispenser (Labcyte).; format: functional, organism-based; details: Lister 427, 2 h
[7] = test system: Leishmania donovani; experiment: as §1, with “Infected Macrophages.” for “Amastigotes/Macrophages.”, “Percent” for “Average number”, “infected” for “amastigotes per”, “cells” for “cell”; format: functional, organism-based, Homo sapiens; details: THP-1
[8] = test system: Leishmania donovani; experiment: GSK_TCAKS: pIC50 Leishmania donovani viability assay using fluorescence intensity. Assay plates (1536-well) were prepared by adding 30nL per well of compound. For single shot assay, the final compound concentration was 5uM. […] Briefly, eGFP LdBOB axenic amastigotes were harvested, fixed and counted in a CASY cell counter (Roche-Applied Science). A final concentration of 1.5 * 10^5 cells per well were prepared in amastigote media containing 500 U/mL penicillin/streptomycin (Invitrogen) and 6uL was dispensed to each experimental well using a Multidrop Combi dispenser (Thermo Scientific). 6uL of assay media was dispensed to control columns used as reference for 100% compound response. Following incubation for 72 h at 37C, 5% CO2, 2 uL of resazurin was added to each well at a final concentration of 0.5 mM in phosphate buffered saline (PBS) with IGEPAL (Sigma-Aldrich), 0.05% (v/v).; format: functional, organism-based
[9] = test system: Trypanosoma cruzi; experiment: as §2, with “H2C9” for “Trypanosoma cruzi”, “H9c2 Host Cardiomyocytes.” for “Infected Cells.”, “Number” for “percentage”, “H9c2 Host Cardiomyocytes nuclei to determine drug-related cytotoxicity.” for “infected cells per well as a second infection marker.”; format: functional, organism-based, Rattus norvegicus; details: H9c2, 4 h
[10] = target: Sterol 14-alpha demethylase (Trypanosoma cruzi (strain CL Brener), UniProt Q7Z1V1); experiment: GSK_TCAKS: pIC50 CYP51 from Trypanosoma cruzi.; format: functional
Sterol 14-alpha demethylase, sequence (Q7Z1V1 whole entry): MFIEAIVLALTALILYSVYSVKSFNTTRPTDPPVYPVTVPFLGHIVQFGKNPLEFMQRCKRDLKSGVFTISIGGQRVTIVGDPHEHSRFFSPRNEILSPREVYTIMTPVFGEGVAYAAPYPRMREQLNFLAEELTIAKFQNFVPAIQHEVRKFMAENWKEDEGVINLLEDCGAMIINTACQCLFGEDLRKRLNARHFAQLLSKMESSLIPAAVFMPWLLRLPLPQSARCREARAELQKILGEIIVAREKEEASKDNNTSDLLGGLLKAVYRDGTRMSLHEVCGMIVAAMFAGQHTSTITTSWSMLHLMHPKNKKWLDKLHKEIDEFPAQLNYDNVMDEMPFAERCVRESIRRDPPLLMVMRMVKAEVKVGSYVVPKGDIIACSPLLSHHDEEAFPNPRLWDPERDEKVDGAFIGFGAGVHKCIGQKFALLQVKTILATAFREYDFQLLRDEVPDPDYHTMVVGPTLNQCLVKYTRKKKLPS

[11] = test system: Trypanosoma brucei brucei; experiment: GSK_TCAKS: pIC50 Trypanosoma brucei viability assay using luminiscence. Assay plates (1536-well) were prepared. T. brucei cultures were harvested and counted in a CASY cell counter. A parasite suspension was prepared at a final concentration of 5 * 10^4 cells/mL in complete HMI9 medium and 6uL was dispensed to all wells containing compounds using a Multidrop Combi dispenser. 6uL of HMI9 media with 0.4% DMSO were dispensed to control columns. Plates were incubated for 24 h at 37C, 5% CO2 then tempered for 10 min at room temperature. ATP content was quantified by adding 4 uL of CellTiter-Glo Reagent (Promega) according to the manufacturer's instructions. Luminescence was measured using a ViewLux.; format: functional, organism-based; details: Lister 427, CASY
[12] = test system: Trypanosoma cruzi; experiment: GSK_TCAKS: pIC50 Trypanosoma cruzi Imaging: Amastigotes/Cell. […] Cells were then washed once with PBS before infection. T. cruzi trypomastigotes, collected at days 5 to 8 after infection from LLC-MK2 parasite infected cultures, were allowed to swim out for 4h at 37C from a centrifuged pellet (2,500 rpm/10 min/room temperature). Trypomastigotes were then collected and counted in a CASY Cell Counter. Trypomastigotes, in supplemented DMEM, were added to H9c2 cultures in a multiplicity of infection of 1 and incubated for 18 h. Cells were washed once with PBS before incubation of the infected H9c2 monolayer with trypsin (Life-Technologies) to detach cells from the flask. Cells were counted in a CASY Cell Counter using a 150 um capillary and their density set at 5 * 10^4 cells per mL in supplemented assay DMEM. Infected H9c2 were dispensed into 384-well poly-lysine coated assay plates at 50uL per well using a Multidrop Combi dispenser. After seeding them, the plates were incubated at 37C, 5% CO2 for 72h. Cultures were then fixed and stained by addition of 50 uL of a solution containing 8% formaldehyde and 4 uM DRAQ5 DNA dye (BioStatus, UK) per well. […] Five images were collected per well for reliable statistical analysis. Automated image analysis was performed with a script developed on Acapella High Content Imaging and Analysis Software (PerkinElmer). Output: number of amastigotes per cell as infection level measurement.; format: functional, organism-based, Rattus norvegicus; details: H9c2, 4 h

| SMILES | IC50 [1] [µM] | IC50 at 48 h [2] [µM] | IC50 [3] [µM] | IC50 [4] [µM] | IC50 [5] [µM] | IC50 [6] [µM] | IC50 [7] [µM] | IC50 [8] [µM] | IC50 [9] [µM] | IC50 [10] [µM] | IC50 [11] [µM] | IC50 [12] [µM] |
| --- | --- | --- | --- | --- | --- | --- | --- | --- | --- | --- | --- | --- |
| N#Cc1cccc(Cc2cc(Nc3cc(C4CC4)[nH]n3)nc(N3CC[C@H]3C(N)=O)n2)c1 | 0.0794 | > 100 | 0.398 | 3.98 | 0.0316 | 0.0398 | 0.2 | 0.631 | 0.00398 | 50.1 | 0.0631 | 1 |
| COc1ccc(C(=O)Nc2c(C)nn(COc3cccc(C(F)(F)F)c3)c2C)cc1 | > 50.1 | > 100 | 25.1 | 39.8 | 31.6 | 0.794 | > 50.1 | > 50.1 | > 50.1 | 12.6 | 0.794 | 25.1 |
| Cc1cc2nc(N3CC[C@H]3C(N)=O)nc(Nc3cc(C4CC4)[nH]n3)c2s1 | 1.26 | > 100 | 6.31 | 7.94 | 0.794 | 0.0794 | 2 | 0.794 | 0.501 | > 100 | 0.126 | 3.98 |
| COc1ccc(-c2cc(C)no2)cc1S(=O)(=O)Nc1ccc(C)c(C)c1 | 2 | > 100 | 5.01 | 7.94 | > 50.1 | 20 | 2.51 | 7.94 | 15.8 | 15.8 | 20 | 5.01 |
| COc1ccc(-c2cnc(C)o2)cc1S(=O)(=O)Nc1ccc(C)cc1C | 2.51 | > 100 | 2.82 | 3.16 | > 50.1 | 6.31 | 3.16 | 3.98 | > 50.1 | 25.1 | 31.6 | 3.16 |
| CNc1nc(C)nc(N2CCc3cc(C(=O)NCc4ccc(-c5cc[nH]n5)cc4Cl)ccc32)n1 | 0.398 | > 100 | > 50.1 | > 50.1 | > 50.1 | 12.6 | 0.316 | 2.51 | 20 | 5.01 | 10 | > 50.1 |
| O=C(c1cccc(Nc2ncc(-c3ccc4c(c3)OCO4)cn2)c1)N1CCOCC1 | 1.58 | > 126 | 6.31 | 1.26 | > 63.1 | 25.1 | 3.98 | 2 | 6.31 | 20 | > 50.1 | 0.794 |
| O=C1CN(C(=O)c2cccc(Nc3ncc(-c4ccc5c(c4)OCO5)cn3)c2)CCN1 | 2 | > 126 | 1.58 | 0.794 | > 63.1 | > 50.1 | 5.01 | 1.58 | > 63.1 | 25.1 | > 50.1 | 0.501 |
| O=C(Nc1nc2ccccc2[nH]1)c1ccc2[nH]cnc2c1 | 3.16 | 50.1 | 25.1 | > 50.1 | > 50.1 | > 39.8 | 5.01 | 2.51 | > 50.1 | 5.01 | > 39.8 | 50.1 |
| CNc1nc(C)nc(N2CCc3cc(C(=O)NCc4ccc(-c5nccn5C)cc4Cl)ccc32)n1 | 0.794 | 31.6 | 5.01 | 12.6 | 25.1 | 12.6 | 0.794 | 5.01 | 50.1 | 1.58 | 20 | 5.01 |
| COc1ncc(-c2ccc3ncnc(N4CCOCC4)c3c2)cc1NS(C)(=O)=O | 0.631 | > 100 | 0.501 | 6.31 | 1 | 0.316 | 5.01 | 3.16 | 1.58 | 39.8 | 0.501 | 2.51 |
| COc1ccc(CNc2nsc3ccccc23)cc1OC | 5.01 | 50.1 | 6.31 | 25.1 | 25.1 | 7.94 | 6.31 | 3.16 | > 50.1 | 12.6 | 6.31 | 20 |
| CC1CN(Cc2ccc(C#N)cc2)CCN1c1ccc(NC(=O)c2ccccc2F)cc1 (centres undefined) | 5.01 | > 100 | 25.1 | > 50.1 | > 50.1 | > 39.8 | 10 | 39.8 | > 50.1 | 31.6 | > 39.8 | > 50.1 |
| COc1ncc(-c2ccc3nccc(-c4ccncc4)c3c2)cc1NS(C)(=O)=O | 0.631 | > 100 | 1.58 | 25.1 | 3.16 | 0.316 | 2.51 | 3.16 | 5.01 | 79.4 | 1 | 12.6 |
| CCCCc1cc(Nc2cc(C3CCC3)[nH]n2)nc(N2CCC2C(N)=O)n1 (centres undefined) | 0.631 | > 100 | 3.16 | 3.16 | 1 | 0.126 | 2 | 3.98 | 0.794 | > 100 | 0.158 | 1.58 |
| O=C(COc1nn(-c2ccccc2)c2ncccc12)NCc1ccccc1 | 0.0794 | > 100 | 12.6 | > 50.1 | > 50.1 | > 39.8 | 0.316 | 0.398 | > 50.1 | 6.31 | > 39.8 | 31.6 |
| CC(=O)NCCNc1cc(-c2ccnc(Nc3cccc(Cl)c3)n2)ccn1 | 0.1 | 25.1 | 0.398 | 1.58 | 0.1 | 0.2 | 0.251 | 0.316 | 0.398 | 5.01 | 0.2 | 0.158 |

— ChEMBL document CHEMBL3430912, “GSK Tres Cantos Anti-Kinetoplastid Screening (TCAKS) Data”
